# Target: T1, Dimer of Gag-Pol polyprotein [489-587] (Human immunodeficiency virus 1, UniProt P12497)
# T1 construct: 489-587
# Assay: Protease Inhibition Assay
# Conditions: pH 4.7; 37 °C
# Protocol: For determination of IC50 values, HIV-1 protease was added to assay buffer containing inhibitor and the substrate (H-His-Lys-Ala-Arg-Val-Leu- (p-NO2) Phe-Glu-Ala-norleucine-Ser-NH2). The Leu- (p-NO2) Phe bond of the substrate was cleaved by the enzyme, and the substrate and products were separated by reversed-phase HPLC. Absorbance was measured at 220 nm, peak areas were determined, and percentage conversion to product was calculated.
Structure (SMILES),IC50,Ki
O=c1oc(-c2ccccc2)cc(O)c1C(CC1CC1)SCc1ccccc1 (racemic) [3-[1-(benzylsulfanyl)-2-cyclopropylethyl]-4-hydroxy-6-phenyl-2H-pyran-2-one],0.084 µM,
O=c1oc(-c2ccccc2)cc(O)c1C(CC1CCCC1)SC1CCCCC1 (racemic) [3-[1-(cyclohexylsulfanyl)-2-cyclopentylethyl]-4-hydroxy-6-phenyl-2H-pyran-2-one],0.541 µM,
O=c1oc(-c2ccccc2)cc(O)c1C(CC1CC1)SC1CCCCC1 (racemic) [3-[1-(cyclohexylsulfanyl)-2-cyclopropylethyl]-4-hydroxy-6-phenyl-2H-pyran-2-one],0.147 µM,
O=c1oc(-c2ccccc2)cc(O)c1C(CC1CC1)SC1CCCC1 (racemic) [3-[1-(cyclopentylsulfanyl)-2-cyclopropylethyl]-4-hydroxy-6-phenyl-2H-pyran-2-one],0.069 µM,
O=c1oc(-c2ccccc2)cc(O)c1C(SCc1ccccc1)c1ccccc1 (racemic) [3-[(benzylsulfanyl)(phenyl)methyl]-4-hydroxy-6-phenyl-2H-pyran-2-one],0.48 µM,
O=c1oc(-c2ccccc2)cc(O)c1C(SC1CCCC1)C1CCCC1 (racemic) [3-[cyclopentyl(cyclopentylsulfanyl)methyl]-4-hydroxy-6-phenyl-2H-pyran-2-one],0.225 µM,
O=c1oc(-c2ccccc2)cc(O)c1C(Sc1ccc2ccccc2c1)c1ccccc1 (racemic) [4-hydroxy-3-[(naphthalen-2-ylsulfanyl)(phenyl)methyl]-6-phenyl-2H-pyran-2-one],2.45 µM,
O=c1oc(-c2ccccc2)cc(O)c1C(Sc1ccccc1)c1ccc2ccccc2c1 (racemic) [4-hydroxy-3-[naphthalen-2-yl(phenylsulfanyl)methyl]-6-phenyl-2H-pyran-2-one],7.82 µM,
CC(C)CC(SC1CCCC1)c1c(O)cc(-c2ccccc2)oc1=O (racemic) [(+/-)-3-[1-(Cyclopentylthio)-3-methylbutyl]-4-hydroxy-6-phenyl-2H-pyran-2-one],,0.033 µM
O=c1oc(-c2ccccc2)cc(O)c1C(Sc1ccccc1)C1CCCCC1 (racemic) [(+/-)-3-[Cyclohexyl(phenylthio)methyl]-4-hydroxy-phenyl-2H-pyran-2-one],2.44 µM,
O=c1oc(-c2ccccc2)cc(O)c1C(Sc1ccccc1)c1ccccc1 (racemic) [(+/-)-4-Hydroxy.6-phenyl-3-[phenyl(phenylthio)methyl]-2H-pyran-2-one],0.78 µM,
O=c1oc(-c2ccccc2)cc(O)c1C(SC1CCCCC1)c1ccccc1 (stereo not drawn) [3-[(cyclohexylsulfanyl)(phenyl)methyl]-4-hydroxy-6-phenyl-2H-pyran-2-one],0.48 µM,
O=c1oc(-c2ccccc2)cc(O)c1CSc1ccccc1 [4-hydroxy-6-phenyl-3-[(phenylsulfanyl)methyl]-2H-pyran-2-one],84.3 µM,
